How the values were obtained:
healthy subjects = assay: Human hemodynamics (impedance cardiography), healthy subjects, 7.5-hour ascending dose IV infusion; type: in vivo; details: for Heart Rate Change from Baseline / Heart Rate Percent Change from Baseline: post hoc analysis
Protocol: Efficacy was based on the pharmacodynamic evaluation of hemodynamics, which was monitored using the noninvasive technique of impedance cardiography. Heart rate values were collected by impedance cardiography measurements. It was noted that the heart rate of subjects receiving placebo were elevated on the day of their infusions, at baseline before the infusion, and for the first 3 to 4 hours after the infusions were started (FIG. 17). Based on this observation, it appeared that there was a potential effect of period on the observed heart rate.
A mixed-effect model with baseline as covariate, period and dose group (≦3 ng/kg/min−low, >3 to ≦36 ng/kg/min−mid, >36 ng/kg/min−high) as fixed effects, and a random subject effect was established using the heart rate change from baseline in healthy subjects.
To confirm that the statistically significant increase in heart rate is caused by the high dose group, a similar mixed-effect model that excluded the high dose level (>36 ng/kg/min) group was built up.
A post hoc graphical analysis of the hemodynamic data was done to adjust for the elevated baseline values seen just before onset of the infusion, to obtain the best estimate of each hemodynamic parameter, and to correct for the effect of period. A post hoc graphic presentation was prepared from the complete (high frequency) dataset. This dataset contains the raw data that were further processed by the vendor (ie, CardioDynamics) and reported only at specific time points.
In this post hoc analysis an extended baseline was used for each value that included all values recorded before initiation of the infusion. Then an average value for each parameter was obtained from the last 30 minutes of each 2.5 hour infusion and was used as the effect in that period of the infused dose. Each value was modified for the effect of period of infusion by subtracting the mean change from baseline seen in placebo subjects dosed in that same period (placebo subtraction). The dose effect was estimated by averaging the values from all subjects who received the same dose after the placebo subtraction.

in vivo = details: dog, iv
Protocol: The findings described above were further examined in a study, in which h-SCP (SEQ ID NO:1) was infused over a 30-minute period at the same total doses that were administered by bolus as described above with the results presented in Table 17 and FIGS. 11A & B. As in the case of bolus dosing h-SCP (SEQ ID NO:1) elicited dose- (infusion-) dependent changes in blood pressure, left ventricular systolic and diastolic function, and heart rate. However, at the lower range of the dose- (infusion-) response curve there was a pronounced lessening in the positive chronotropic and blood pressure response with marked and significant increase in cardiac function measured as increased CO and LVEF. […] The corresponding plasma concentration of h-SCP (SEQ ID NO:1) was 4,577 pg/mL.
A sandwich immunoassay was developed using an affinity purified goat polyclonal antibody, specific to h-SCP that was pre-coated onto a microplate with integrated electrodes. h-SCP molecules present in the sample will bind to the capture polyclonal antibody coated on the plate. After washing away any unbound substances, a sulfo-tagged mouse monoclonal anti-h-SCP antibody was added. This conjugated antibody will bind to the h-SCP molecules captured on the microplate and the quantity of analyte was determined by electrochemiluminescence. The amount of signal generated is directly proportional to the h-SCP concentration in the sample or standard. The standard curve range is 3.125-1600 pg/mL with a quantifiable range from 10-800 pg/mL. A sample volume of 25 μL (in duplicate) is required for this assay. This immunoassay is specific for human and dog stresscopin and human urocortin III (h-UCN3). […] After completion of the analysis, based on a comparison of reference standards between the ELISA and HPLC method, a correction factor of 1.57 was applied to all bioanalytical data.

h-CRHR1 = molecular target: T1, h-CRHR1 (Homo sapiens, UniProt P34998); details: h-CRHR1 transfected HEK-293 cells, approximated values from concentration response curves (Hsu et al., 2001); cited from earlier work
T1 sequence (P34998 24-415): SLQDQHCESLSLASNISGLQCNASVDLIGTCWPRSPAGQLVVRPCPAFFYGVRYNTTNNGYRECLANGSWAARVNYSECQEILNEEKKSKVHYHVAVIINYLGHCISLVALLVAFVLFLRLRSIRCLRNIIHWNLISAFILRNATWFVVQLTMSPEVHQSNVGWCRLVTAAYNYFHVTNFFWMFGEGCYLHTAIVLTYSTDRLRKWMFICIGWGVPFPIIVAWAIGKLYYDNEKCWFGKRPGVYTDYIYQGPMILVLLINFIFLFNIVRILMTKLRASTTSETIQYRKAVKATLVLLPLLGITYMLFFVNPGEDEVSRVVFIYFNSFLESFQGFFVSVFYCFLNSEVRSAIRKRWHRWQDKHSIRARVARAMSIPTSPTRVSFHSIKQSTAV

H-TKFTLSLDVPTNIMNLLFNIAKAKNLRAQAAANAHLMAQI-NH2 [SEQ ID NO: 1, TKFTLSLDVPTNIMNLLFNIAKAKNLRAQAAANAHLMAQI-NH2]
cardiac output or cardiac index (healthy subjects; all doses ≦36 ng/kg/min): no change in cardiac output or cardiac index | heart rate compared with baseline (healthy subjects; doses less than 36 ng/kg/min): no notable increase in heart rate compared with baseline | increase in heart rate from baseline (healthy subjects; doses of 72 ng/kg/min and higher, end of 2.5-hour infusion period): ~30 bpm | Heart Rate Change from Baseline (healthy subjects; infusion rate 0.1 ng/kg/min): −2.8 bpm | Heart Rate Percent Change from Baseline (healthy subjects; infusion rate 0.1 ng/kg/min): −4.6% | Heart Rate Change from Baseline (healthy subjects; infusion rate 0.3 ng/kg/min): −0.4 bpm | Heart Rate Percent Change from Baseline (healthy subjects; infusion rate 0.3 ng/kg/min): −0.2% | Heart Rate Change from Baseline (healthy subjects; infusion rate 1 ng/kg/min): −2.0 bpm | Heart Rate Percent Change from Baseline (healthy subjects; infusion rate 1 ng/kg/min): −3.3% | Heart Rate Change from Baseline (healthy subjects; infusion rate 3 ng/kg/min): 1.3 bpm | Heart Rate Percent Change from Baseline (healthy subjects; infusion rate 3 ng/kg/min): 2.6% | Heart Rate Change from Baseline (healthy subjects; infusion rate 9 ng/kg/min): 0.1 bpm | Heart Rate Percent Change from Baseline (healthy subjects; infusion rate 9 ng/kg/min): 0.6% | Heart Rate Change from Baseline (healthy subjects; infusion rate 18 ng/kg/min): 2.1 bpm | Heart Rate Percent Change from Baseline (healthy subjects; infusion rate 18 ng/kg/min): 3.9% | Heart Rate Change from Baseline (healthy subjects; infusion rate 36 ng/kg/min): 5.2 bpm | Heart Rate Percent Change from Baseline (healthy subjects; infusion rate 36 ng/kg/min): 9.4% | Heart Rate Change from Baseline (healthy subjects; infusion rate 54 ng/kg/min): 12.7 bpm | Heart Rate Percent Change from Baseline (healthy subjects; infusion rate 54 ng/kg/min): 20.5% | Heart Rate Change from Baseline (healthy subjects; infusion rate 72 ng/kg/min): 18.1 bpm | Heart Rate Percent Change from Baseline (healthy subjects; infusion rate 72 ng/kg/min): 30.3% | Heart Rate Change from Baseline (healthy subjects; infusion rate 108 ng/kg/min): 20.9 bpm | Heart Rate Percent Change from Baseline (healthy subjects; infusion rate 108 ng/kg/min): 31.3% | Heart Rate Change from Baseline (healthy subjects; infusion rate 144 ng/kg/min): 21.2 bpm | Heart Rate Percent Change from Baseline (healthy subjects; infusion rate 144 ng/kg/min): 34.3% | level at 0.5 h (in vivo; 22 ng/kg/min): 0.62 ng/mL | level at time molar at 0.5 h (in vivo; 22 ng/kg/min): 0.142 nM | level at 0.5 h (in vivo; 43 ng/kg/min): 4.58 ng/mL | level at time molar at 0.5 h (in vivo; 43 ng/kg/min): 1.05 nM | level at 0.5 h (in vivo; 86 ng/kg/min): 5.14 ng/mL | level at time molar at 0.5 h (in vivo; 86 ng/kg/min): 1.18 nM | level at 0.5 h (in vivo; 146 ng/kg/min): 23.6 ng/mL | level at time molar at 0.5 h (in vivo; 146 ng/kg/min): 5.41 nM | level at 0.5 h (in vivo; 437 ng/kg/min): 67.1 ng/mL | level at time molar at 0.5 h (in vivo; 437 ng/kg/min): 15.4 nM

H-HPGSRIVLSLDVPIGLLQILLEQARARAAREQATTNARILARV-NH2 [SEQ ID NO: 117, HPGSRIVLSLDVPIGLLQILLEQARARAAREQATTNARILARV-NH2, reference compound]
Published pA50 (h-CRHR1): >7^3

From patent US20110105397A1, “METHOD FOR TREATING HEART FAILURE WITH STRESSCOPIN-LIKE PEPTIDES” (priority 2009, published 2011)
